In brackets after ≈: the same amount, converted by molar mass. Activity calls are given as the source filed them. The calls are words filed in the database; no cut-off is given here.

Data set [1] concerns Salmonella typhimurium. The data set can be described thus: Antibacterial activity against Salmonella typhimurium ATCC 14028 at pH 7 after 16 to 18 hrs by broth microdilution method. The format is functional, Salmonella enterica subsp. enterica serovar Typhimurium. The settings on record: Salmonella enterica. Background: Broth dilution looks for growth in wells or tubes with falling amounts of substance.

For data set [2], the system named is Salmonella typhimurium. In words: Bactericidal activity against Salmonella typhimurium ATCC 14028 at 10 uM within 3 to 9 hrs. The format is functional, Salmonella enterica subsp. enterica serovar Typhimurium.
For data set [3], the system named is Salmonella typhimurium. The data set can be described thus: Antibacterial activity against Salmonella typhimurium ATCC 14028 at pH 5 after 16 to 18 hrs by broth microdilution method. The settings on record: Salmonella enterica. The format is functional, Salmonella enterica subsp. enterica serovar Typhimurium.
Data set [4] has as its system Salmonella typhimurium. The data set can be described thus: Antibacterial activity against Salmonella typhimurium ATCC 14028 assessed as survival at 10 uM after 3 hrs by broth microdilution method. The format is functional, Salmonella enterica subsp. enterica serovar Typhimurium.
For data set [5], the system named is Salmonella typhimurium. In words: Bactericidal activity against Salmonella typhimurium ATCC 14028 at 0.125 to 1 times MIC after 24 hrs by dose-kill assay. The format is functional, organism-based. As to conditions: Salmonella enterica subsp. enterica serovar Typhimurium.
For data set [6], the system named is Salmonella typhimurium. The data set can be described thus: Bactericidal activity against Salmonella typhimurium ATCC 14028 at 10 uM up to 9 hrs. The format is functional, organism-based. As to conditions: Salmonella enterica subsp. enterica serovar Typhimurium.
Data set [7] concerns Salmonella typhimurium. In words: Bactericidal activity against Salmonella typhimurium ATCC 14028 at 1 to 2 times MIC after 2 hrs by time-kill assay. As to conditions: Salmonella enterica subsp. enterica serovar Typhimurium. The format is functional, organism-based.
A short description of data set [8]: Drug uptake in mouse RAW264.7 cells at 2 uM using FITC-labeled test compound at 4 degC after 2 hrs in presence of lipid raft disruptor MbetaCD by trypan blue staining-based flow cytometry. The format is ADME, cell-based. The settings on record: raw264.7, 2 h. In general terms: In flow cytometry, cells or beads pass a laser one at a time.
A short description of data set [9]: Drug internalization in mouse RAW264.7 cells at 1 uM using FITC-labeled test compound after 2 hrs by flow cytometry. The format is ADME, cell-based. The settings on record: raw264.7, 2 h.
A short description of data set [10]: Drug uptake in mouse RAW264.7 cells at 5 uM using FITC-labeled test compound after 2 hrs by flow cytometry. The format is ADME, cell-based. As to conditions: raw264.7, 2 h.
Data set [11] can be described thus: Drug uptake in mouse RAW264.7 cells at 5 uM using FITC-labeled test compound after 0.5 hrs by flow cytometry. The format is ADME, cell-based. As to conditions: raw264.7, 0.5 h.
A short description of data set [12]: Drug uptake in mouse RAW264.7 cells at 2 uM using FITC-labeled test compound at 4 degC after 2 hrs in presence of clathrin-mediated endocytosis inhibitor chlorpromazine by trypan blue staining-based flow cytometry. The format is ADME, cell-based. The settings on record: raw264.7, 2 h.
Data set [13] can be described thus: Drug uptake in mouse RAW264.7 cells at 2 uM using FITC-labeled test compound after 2 hrs at 4 degC in presence of microtubule polymerization inhibitor nocodazole by trypan blue staining-based flow cytometry. The settings on record: raw264.7, 2 h. The format is ADME, cell-based.
Data set [14] is described as follows: Drug internalization in mouse RAW264.7 cells using FITC-labeled test compound by flow cytometry. The format is ADME, cell-based.
Data set [15] is described as follows: Drug uptake in mouse RAW264.7 cells at 0.5 uM using FITC-labeled test compound at 4 degC after 2 hrs by flow cytometry. The format is ADME, cell-based. As to conditions: raw264.7, 2 h.
The nature of data set [16]: Cytotoxicity against mouse RAW264.7 cells assessed as cell survival at 100 uM after 8 hrs by MTT assay. The format is cell-based. As to conditions: read-out: Survival. On the technique in general: Tetrazolium dyes change colour on reduction, which living cells bring about.
The nature of data set [17]: Drug uptake in mouse RAW264.7 cells at 2 uM using FITC-labeled test compound at 4 degC after 2 hrs in presence of macropinocytosis inhibitor amiloride by trypan blue staining-based flow cytometry. The format is ADME, cell-based. The settings on record: raw264.7, 2 h.
The nature of data set [18]: Drug internalization in mouse RAW264.7 cells at 1 uM using FITC-labeled test compound after 0.5 hrs by flow cytometry. The settings on record: raw264.7, 0.5 h. The format is ADME, cell-based.
Data set [19] can be described thus: Drug uptake in cytosol of mouse RAW264.7 cells at 5 uM using FITC-labeled test compound after 5 hrs by Hoechst 33342/FM 4-64 staining-based confocal microscopic analysis. The format is ADME, subcellular.
The test system of data set [20] is Salmonella typhimurium. The data set can be described thus: Bactericidal activity against Salmonella typhimurium ATCC 14028 at MIC up to 6 hrs by time-kill assay. The format is functional, organism-based. The settings on record: Salmonella enterica subsp. enterica serovar Typhimurium.

A word on the MIC: it is the lowest concentration that inhibits growth of the organism. Low readings indicate a more susceptible organism, high ones a less susceptible organism. In the data set on Salmonella typhimurium [1], H-RRWQWR-OH had an MIC of more than 80 µM.

Regarding `CC(C)[C@@H]1NC(=O)[C@H](C)NC(=O)[C@H](CC(N)=O)NC(=O)[C@H](CCCNC(=N)N)NC(=O)[C@H](Cc2ccc(O)cc2)NC(=O)[C@H](C(C)C)NC(=O)[C@@H]2CSSC[C@H](NC(=O)[C@H](C(C)C)NC(=O)[C@H](CCCNC(=N)N)NC1=O)C(=O)N[C@@H](Cc1cnc[nH]1)C(=O)N[C@@H](CCCNC(=N)N)C(=O)N[C@@H](CCCNC(=N)N)C(=O)N[C@H](C(=O)N[C@@H](CC(N)=O)C(=O)O)CSSC[C@H](NC(=O)[C@H](Cc1ccccc1)NC(=O)[C@H](C)N)C(=O)N[C@@H](Cc1c[nH]c3ccccc13)C(=O)N[C@@H](CC(N)=O)C(=O)N[C@@H](C(C)C)C(=O)N2`, the Activity in the data set with Salmonella typhimurium [2] is on record as 22.41 - 69.74%. Moreover, the MIC in the data set on Salmonella typhimurium [1] was found to be 0.78 µM (≈ 2 µg/mL); with Salmonella typhimurium [3], 25 µM (≈ 64.2 µg/mL). In addition, in the data set with Salmonella typhimurium [4], the Survival was found to be 2.3 ×10⁵ CFU/ml.

On to `CC(C)[C@@H]1NC(=O)[C@H](C)NC(=O)[C@H](CC(N)=O)NC(=O)[C@H](CCCNC(=N)N)NC(=O)[C@H](Cc2ccc(O)cc2)NC(=O)[C@H](C(C)C)NC(=O)[C@@H]2CSSC[C@@H](NC(=O)[C@H](C(C)C)NC(=O)[C@H](CCCNC(=N)N)NC1=O)C(=O)N[C@@H](Cc1cnc[nH]1)C(=O)N[C@@H](CCCNC(=N)N)C(=O)N[C@@H](CCCNC(=N)N)C(=O)N[C@H](C(=O)N[C@@H](CC(N)=O)C(=O)O)CSSC[C@H](NC(=O)[C@H](Cc1ccccc1)NC(=O)[C@H](C)NC(=O)[C@H](CCCNC(=N)N)NC(=O)[C@H](Cc1c[nH]c3ccccc13)NC(=O)[C@H](CCC(N)=O)NC(=O)[C@H](Cc1c[nH]c3ccccc13)NC(=O)[C@H](CCCNC(=N)N)NC(=O)[C@@H](N)CCCNC(=N)N)C(=O)N[C@@H](Cc1c[nH]c3ccccc13)C(=O)N[C@@H](CC(N)=O)C(=O)N[C@@H](C(C)C)C(=O)N2`, for which the result in the data set with Salmonella typhimurium [5] and in the data set with Salmonella typhimurium [7] was Active. Moreover, the result with Salmonella typhimurium [6] was inactive.

For the compound `CC(C)[C@@H]1NC(=O)[C@H](C)NC(=O)[C@H](CC(N)=O)NC(=O)[C@H](CCCNC(=N)N)NC(=O)[C@H](Cc2ccc(O)cc2)NC(=O)[C@H](C(C)C)NC(=O)[C@@H]2CSSC[C@H](NC(=O)[C@H](C(C)C)NC(=O)[C@H](CCCNC(=N)N)NC1=O)C(=O)N[C@@H](Cc1cnc[nH]1)C(=O)N[C@@H](CCCNC(=N)N)C(=O)N[C@@H](CCCNC(=N)N)C(=O)N[C@H](C(=O)N[C@@H](CC(N)=O)C(=O)O)CSSC[C@H](NC(=O)[C@H](Cc1ccccc1)NC(=O)[C@H](C)NC(=O)[C@H](CCCNC(=N)N)NC(=O)[C@H](CCCNC(=N)N)NC(=O)[C@H](CCCNC(=N)N)NC(=O)[C@H](CCC(N)=O)NC(=O)[C@H](CCCNC(=N)N)NC(=O)[C@H](CCCNC(=N)N)NC(=O)[C@H](CCCCN)NC(=O)[C@H](CCCCN)NC(=O)[C@H](CCCNC(=N)N)NC(=O)CNC(=O)[C@@H](N)Cc1ccc(O)cc1)C(=O)N[C@@H](Cc1c[nH]c3ccccc13)C(=O)N[C@@H](CC(N)=O)C(=O)N[C@@H](C(C)C)C(=O)N2`, the Drug uptake entry in [8] is “Not Active”; in [9], 99.8%; in [10], 99.9%; in data set [11] it was 99.9%; in data set [12], “Not Active”; in [13] it was “Not Active”. Further, the Drug uptake entry is “Dose-dependent effect and Tde” in data set [14]; 8.3% in [15]; “Not Active” in data set [17]; 93.5% in data set [18]; “Active” in data set [19]. Besides, the viability at 8 h, 100 µM in data set [16] is 90.2%.

Take `CC(C)[C@@H]1NC(=O)[C@H](C)NC(=O)[C@H](CC(N)=O)NC(=O)[C@H](CCCNC(=N)N)NC(=O)[C@H](Cc2ccc(O)cc2)NC(=O)[C@H](C(C)C)NC(=O)[C@@H]2CSSC[C@H](NC(=O)[C@H](C(C)C)NC(=O)[C@H](CCCNC(=N)N)NC1=O)C(=O)N[C@@H](Cc1cnc[nH]1)C(=O)N[C@@H](CCCNC(=N)N)C(=O)N[C@@H](CCCNC(=N)N)C(=O)N[C@H](C(=O)N[C@@H](CC(N)=O)C(=O)O)CSSC[C@H](NC(=O)[C@H](Cc1ccccc1)NC(=O)[C@H](C)NC(=O)[C@H](CCCNC(=N)N)NC(=O)[C@H](Cc1c[nH]c3ccccc13)NC(=O)[C@H](CCC(N)=O)NC(=O)[C@H](Cc1c[nH]c3ccccc13)NC(=O)[C@H](CCCNC(=N)N)NC(=O)[C@@H](N)CCCNC(=N)N)C(=O)N[C@@H](Cc1c[nH]c3ccccc13)C(=O)N[C@@H](CC(N)=O)C(=O)N[C@@H](C(C)C)C(=O)N2`: the Drug uptake result in data set [8] is “Not Active”; in [9], 57.2%; in data set [10], 96.3%; in data set [11] it was 70.9%; in [12] it was “Not Active”; in data set [13], “Not Active”. Also, the Drug uptake entry in data set [14] was “Dose-dependent effect and Tde”; in data set [15], 17.9%; in data set [17] it was “Not Active”; in data set [18], 28.3%; in data set [19], “Active”. Besides, the viability at 8 h, 100 µM in data set [16] came out at 86.5%.

Consider `N=C(N)NCCC[C@H](NC(=O)[C@H](CCCNC(=N)N)NC(=O)[C@H](CCCNC(=N)N)NC(=O)[C@H](CCC(N)=O)NC(=O)[C@H](CCCNC(=N)N)NC(=O)[C@H](CCCNC(=N)N)NC(=O)[C@H](CCCCN)NC(=O)[C@H](CCCCN)NC(=O)[C@H](CCCNC(=N)N)NC(=O)CNC(=O)[C@@H](N)Cc1ccc(O)cc1)C(=O)O`, for which the MIC against Salmonella typhimurium [1] is more than 80 µM.

For `CC(C)[C@@H]1NC(=O)[C@H](C)NC(=O)[C@H](CC(N)=O)NC(=O)[C@H](CCCNC(=N)N)NC(=O)[C@H](Cc2ccc(O)cc2)NC(=O)[C@H](C(C)C)NC(=O)[C@@H]2CSSC[C@H](NC(=O)[C@H](C(C)C)NC(=O)[C@H](CCCNC(=N)N)NC1=O)C(=O)N[C@@H](Cc1cnc[nH]1)C(=O)N[C@@H](CCCNC(=N)N)C(=O)N[C@@H](CCCNC(=N)N)C(=O)N[C@@H](C(=O)N[C@@H](CC(N)=O)C(=O)O)CSSC[C@H](NC(=O)[C@H](Cc1ccccc1)NC(=O)[C@H](C)N)C(=O)N[C@@H](Cc1c[nH]c3ccccc13)C(=O)N[C@@H](CC(N)=O)C(=O)N[C@@H](C(C)C)C(=O)N2`, the outcome with Salmonella typhimurium [5] was Active. In the data set on Salmonella typhimurium [6], the result was inactive.

For `CC(C)[C@@H]1NC(=O)[C@H](C)NC(=O)[C@H](CC(N)=O)NC(=O)[C@H](CCCNC(=N)N)NC(=O)[C@H](Cc2ccc(O)cc2)NC(=O)[C@H](C(C)C)NC(=O)[C@@H]2CSSC[C@@H](NC(=O)[C@H](C(C)C)NC(=O)[C@@H](CCCNC(=N)N)NC1=O)C(=O)N[C@@H](Cc1cnc[nH]1)C(=O)N[C@H](CCCNC(=N)N)C(=O)N[C@@H](CCCNC(=N)N)C(=O)N[C@@H](C(=O)N[C@@H](CC(N)=O)C(=O)O)CSSC[C@H](NC(=O)[C@H](Cc1ccccc1)NC(=O)[C@H](C)NC(=O)[C@H](CCCNC(=N)N)NC(=O)[C@H](CCCNC(=N)N)NC(=O)[C@H](CCCNC(=N)N)NC(=O)[C@H](CCC(N)=O)NC(=O)[C@H](CCCNC(=N)N)NC(=O)[C@H](CCCNC(=N)N)NC(=O)[C@H](CCCCN)NC(=O)[C@H](CCCCN)NC(=O)[C@H](CCCNC(=N)N)NC(=O)CNC(=O)[C@@H](N)Cc1ccc(O)cc1)C(=O)N[C@@H](Cc1c[nH]c3ccccc13)C(=O)N[C@H](CC(N)=O)C(=O)N[C@@H](C(C)C)C(=O)N2`, the outcome in the data set with Salmonella typhimurium [20], in the data set on Salmonella typhimurium [5] and with Salmonella typhimurium [7] was Active. In the data set on Salmonella typhimurium [6], the result was inactive.
